Earlier results in patent US11331271B2, “Buccal, sublingual and intranasal delivery of fospropofol” (The Johns Hopkins University, priority 2016, dated 2022).

Tested on: patients
Conditions: anesthetic induction doses; cited from earlier work

**Q.** With `CC(C)c1cccc(C(C)C)c1O` [propofol, 2,6-diisopropylphenol] as the molecule, how does the “patients with respiratory consequences (reduction in tidal volume, apnea)” value read?
**A.** Its value is “up to 83%”.
